Test results taken from patent US20060223994A1, “Novel polymorph of Quetiapine fumarate and a process for its preparation” (Divi's Laboratories Limited, priority 2005, published 2006).

Legend:
[1] = Stability on melting and cooling (air; NMR, IR, HPLC comparison)
[2] = Stability of Form IV under grinding (powder XRD and FT-IR after grinding); settings: ground in glass pestle and mortar for 15 min

- chemical nature after heating ([1]; confirmed by NMR, IR, HPLC retention time and assay versus sample prepared per U.S. Pat. No. 4,879,288): does not also alter its chemical nature
- oxidative degradation on melting and cooling ([1]; melting and cooling in air): no significant degradation
- XRD pattern and FT-IR spectrum of the material after grinding [2]: identical to the form IV
Structure (SMILES): OCCOCCN1CCN(C2=Nc3ccccc3Sc3ccccc32)CC1 [Form IV]
